# According to patent US20120237552A1, “Peptoid Agonists of Nerve Growth Factor and Their Use as Medicaments” (priority 2009, published 2012):
# “Also recorded” adds a separate entry of the source.
# Tests used:
# C57BL/6 EAE mice = experiment: Experimental autoimmune encephalomyelitis (EAE) clinical score; type: in vivo; settings: daily intraperitoneal
# Method: Trials were approved by the Parc Cientific de Barcelona Committee on Animal Care. Female C57BL/6 mice from Harlan (8-12 weeks old) were immunized subcutaneously in both hind pads with 300 μg of myelin oligodendrocyte glycoprotein (MOG) peptide 35-55 (Spikem, Firenze) emulsified with 50 μg of Mycobacterium tuberculosis (H37Ra strain; Difco, Detroit, Mich.) in incomplete Freund's adjuvant (IFA) as previously described (Adams et al. 2007). Mice were intraperitoneally injected with Pertussis toxin (Sigma)(500 ng) at the time of immunization and 2 days later. Animals were weighted and inspected for clinical signs of disease on a daily basis by a blinded observer. Disease severity of EAE was assessed according to the following scale: 0=normal; 0.5=mild limp tail; 1=limp tail; 2=mild parapesis of the hind limbs, unsteady gait; 3=moderate parapesis, voluntary movements still possible; 4=paraplegia or tetraparesis; 5=moribund state. Data shown for the clinical studies are representative of two independent experiments performed with the indicated number of animals (Moreno et al., 2006).
# (§1) The agonist molecules selected for the animal studies, N35-4-8C, N6-4-17C and N35-4-17C, were prepared in water with 5% DMSO. Animals were treated with the agonist molecule (25, 50 and 100 mg/kg) or placebo (water+5% DMSO) through daily intraperitoneal injection starting after immunization. At the end of the study, mice were anesthetized and perfused intracardially with 4% of paraformaldehyde in 0.1M phosphate buffer (pH 7.6). Brains, spinal cords and spleens were dissected and either fixed or frozen until use. Serum was obtained from all animals included in the study, and transaminases levels were measured.
# In order to evaluate the effects of the NGF-like peptoids “in vivo”, we studied the effect of the NGF-mimetic peptoids in the animal model of MS. C57BL/6 mice immunized with MOG35-55 peptide were treated daily with N35-4-8C, N6-4-17C and N35-4-17C intraperitoneally from day 0 to day 25 at a different concentrations of the compound. N35-4-8C was tested at 3 different concentrations selected in base to previous experiments using agonist molecules in animal models: 25 mg/kg, 50 mg/kg and 100 mg/kg. […] N35-4-17C was also tested at the same concentrations. […] Moreover, the treatment had higher clinical scores with a clear worsening in the progression of the disease (FIG. 4C).
# RN22 cells = experiment: RN22 cell survival under CuSO4 stress (MTT); type: cell-based, rat; settings: CuSO4 150 μM, 24 h, peptoids 1 ng/ml-10 μg/ml; compared with NGF 100 ng/ml
# Method: The library was also tested to assess their capacity to promote cell survival of myelin producing cells. To delineate p75 signalling independent of TrkA, we used a rat schwannoma cell line (RN22) expressing p75, but not TrkA, (Gentry et al., 2000).
# The rat schawnnoma cell line RN22 was cultured in 5% CO2 at 37° C. in Dulbecco's modified Eagle's medium (DMEM) with 10% fetal bovine serum (FBS) and penicillin/streptomycin.
# RN22 cells were plated at 20,000 cells/well on a 24-well plate in DMEM alone and after allowing the cells to adhere for 3 days, cupper sulphate (CuSO4) (150 μM) was added with or without NGF (100 ng/ml) or the peptoids N35-4-8C, N6-4-17C and N35-4-17C at different concentrations (1 ng/ml-10 μg/ml) to generate stress and cell death. After 24 h cell viability was studied by determining the amount of yellow MTT (Sigma) that was reduced to insoluble purple formazan. After removing the medium, the water-insoluble formazan was solubilised with DMSO (Sigma), and the dissolved material was measured spectrophotometrically at a wavelength of 570 nm, subtracting the background at 650 nm (Frade, 2005).
# PC12 cells = experiment: PC12 cell differentiation (neurite outgrowth); type: cell-based, rat; settings: 3 days, peptoids 2 ng/ml to 50 μg/ml, reduced serum (0.5% FBS and 1% HS); compared with NGF 100 ng/ml
# Method: PC 12 cell differentiation was measured by plating cells onto collagen-coated 24-wells plates. NGF (100 ng/ml) or the small chemicals at different concentrations were added and the percentage of cells with neurite processes greater than two cell bodies in length were counted after relevant treatment. For each experiment at least 300 cells were randomly measured (Burstein and Greene, 1978).
# PC12 cells were maintained at 37° C. in DMEM supplemented with 2.5% FBS, 15% of Horse serum (HS) and penicillin/streptomycin in a humidified 5% CO2 incubator. The cells were grown on 60- and 100-mm tissue culture dishes (Becton Dickinson).
# PC 12 cells were cultured for 3 days in the presence of the peptoids (from 2 ng/ml to 50 μg/ml) under reduced serum conditions (0.5% FBS and 1% HS).
# [1] = Serum transaminases levels in treated EAE mice; type: in vivo; settings: daily intraperitoneal treatment, N35-4-17C at the higher concentrations
# Method: as §1
# TrkA = target: T1, TrkA (Rattus norvegicus, UniProt P35739); experiment: TrkA phosphorylation in PC12 cells (western blot); type: cell-based; settings: 100 ng/ml, time course
# T1 construct: we analyzed their capacity to induce TrkA phosphorylation in PC12 cells; endogenous in cells; host or cells: PC12 cells
# T1 sequence (P35739 33-799): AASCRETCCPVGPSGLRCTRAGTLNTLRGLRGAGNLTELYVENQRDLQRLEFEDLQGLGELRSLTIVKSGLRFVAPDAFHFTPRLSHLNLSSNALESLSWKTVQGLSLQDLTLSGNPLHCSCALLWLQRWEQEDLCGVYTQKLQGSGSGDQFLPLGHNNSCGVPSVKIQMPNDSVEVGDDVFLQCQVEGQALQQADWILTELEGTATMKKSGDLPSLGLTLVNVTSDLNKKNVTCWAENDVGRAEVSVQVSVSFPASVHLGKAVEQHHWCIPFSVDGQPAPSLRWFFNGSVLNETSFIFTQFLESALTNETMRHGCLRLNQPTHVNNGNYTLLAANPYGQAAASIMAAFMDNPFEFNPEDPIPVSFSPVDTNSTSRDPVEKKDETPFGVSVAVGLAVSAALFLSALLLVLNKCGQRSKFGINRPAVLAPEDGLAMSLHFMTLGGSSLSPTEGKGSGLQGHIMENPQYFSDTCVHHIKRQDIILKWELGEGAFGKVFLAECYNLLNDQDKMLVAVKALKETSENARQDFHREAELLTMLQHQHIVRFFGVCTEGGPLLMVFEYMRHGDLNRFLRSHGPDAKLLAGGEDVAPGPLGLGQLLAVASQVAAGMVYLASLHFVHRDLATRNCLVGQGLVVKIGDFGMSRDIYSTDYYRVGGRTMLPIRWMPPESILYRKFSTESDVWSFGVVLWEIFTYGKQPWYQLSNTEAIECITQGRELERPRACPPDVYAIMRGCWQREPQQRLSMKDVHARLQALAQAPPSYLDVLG
# Method: Activation of TrkA is the first event in the signalling cascade leading to differentiation and survival of NGF responsive neurons and PC12 cells (Greene and Tischler, 1976; Chao, 2003; Huang and Reichardt, 2003). To evaluate whether the neurotrophic activity of NGF-like peptoids was mediated by the interaction with TrkA receptor, we analyzed their capacity to induce TrkA phosphorylation in PC12 cells. The activity of peptoids was tested in the range of concentrations that were effective on PC12 cells differentiation.
# Western Blot Analysis. Subconfluent cells were grown overnight in medium containing 2% FBS and 1% HS and stimulated with 100 ng/ml NGF or the NGF-like small chemicals for the indicated time points. Cells were then washed with cold phosphate-buffered saline (PBS) and briefly sonicated in SDS sample buffer (containing β-mercaptoethanol and 2 mM PMSF). Lysates (200 μg of total proteins) were separated on SDS-PAGE, and transferred to nitrocellulose (Whatman, Dassel, Germany). […]
# SAPK/JNK = SAPK/JNK phosphorylation in RN22 cells (western blot); type: cell-based, rat; settings: 100 ng/ml
# Method: (§2) Western Blot Analysis. Subconfluent cells were grown overnight in medium containing 2% FBS and 1% HS and stimulated with 100 ng/ml NGF or the NGF-like small chemicals for the indicated time points. Cells were then washed with cold phosphate-buffered saline (PBS) and briefly sonicated in SDS sample buffer (containing β-mercaptoethanol and 2 mM PMSF). Lysates (200 μg of total proteins) were separated on SDS-PAGE, and transferred to nitrocellulose (Whatman, Dassel, Germany). After blocking with 5% nonfat milk in TBST buffer (10 mM Tris pH 7.5; 150 mM NaCl/0.2% Tween 20), blots were probed overnight at 4° C. with anti-p-TrkA (Tyr 490) antibody (1:1000), anti TrkA antibody (1:1000), anti-p-IκBα (Ser 32/36)(5A5) mouse antibody (1/1000), anti IκBα (L35A5) mouse antibody (1:1000), anti-p-SAPK/JNK (Thr183/Tyr185) antibody (1:1000) or anti-SAPK/JNK antibody (1/1000)(all of them from Cell Signaling), followed by incubation with HRP-conjugated IgG (Jackson ImmunoResearch) for 1 h at room temperature (RT). Detection of phosphorylated species was performed by using the enhanced chemiluminescence (ECL) system (GE Healthcare Bio-Sciences, Piscataway, N.J.).
# In several neuronal systems, JNK activation has been causally linked with the induction of programmed cell death (Bhakar et al., 2003). […]
# IκBα = IκBα phosphorylation / NF-κB pathway activation in PC12 and RN22 cells (western blot); type: cell-based, rat; settings: 100 ng/ml
# Method: as §2
# To investigate whether our NGF-like small chemicals activate p75 we analyzed the activation of the NF-κB pathway (Bonizzi G, Karin M. 2004) and the SAPK/JNK pathway (cell death) in PC12 and RN22 cell lines. […]
compound,measurement,setting,value
"CC(C)CCN(CC(=O)N(CCc1ccc(S(N)(=O)=O)cc1)CC(N)=O)C(=O)CNCCc1ccccc1F [N35-4-17C, [N-(2-(2′-Fluorophenyl)ethyl)glycyl]-[N-(3-methylbutyl)glycyl]-N-[2-(4′-sulfamoylphenyl)ethyl]glycinamide]",EAE clinical severity,"C57BL/6 EAE mice; 25 mg/kg, day 0 to day 25",prevents significantly the development of clinical symptoms in EAE
same,EAE clinical symptoms,C57BL/6 EAE mice; higher concentrations (50 and 100 mg/kg),toxic effect worsening the development of the clinical symptoms
same,"survival of RN22 cells (cell viability, MTT)",RN22 cells,promote survival of RN22 cells
same,differentiation of PC12 cells,PC12 cells,induce the differentiation of PC12 cells at different concentrations to an extent substantially comparable with that induce by NGF
same,transaminases levels in serum,[1],elevated transaminase levels
NGF: homodimeric protein from the neurotrophin family; used as positive control at 100 ng/ml,time of maximal TrkA phosphorylation,TrkA,30 min
same,activation of the JNK pathway (phosphorylation of SAPK/JNK),SAPK/JNK,obvious
same,time after addition at which p-IκBα levels were increased,IκBα,≤ 5 min
"CC(C)CCN(CC(=O)N(CCc1ccc(S(N)(=O)=O)cc1)CC(N)=O)C(=O)CNCCN1CCCC1 [N6-4-17C, [N-(2-(1-Pyrrolidinyl)ethyl)glycyl]-[N-(3-methylbutyl)glycyl]-N-[2-(4′-sulfamoylphenyl)ethyl]glycinamide]",EAE clinical severity,"C57BL/6 EAE mice; any of the concentrations tested (25, 50, 100 mg/kg), 26 days observation",not effective in reducing the clinical severity of EAE; also recorded: no effects in EAE
same,"survival of RN22 cells (cell viability, MTT)",RN22 cells,promote survival of RN22 cells
same,differentiation of PC12 cells,PC12 cells,induce the differentiation of PC12 cells at different concentrations to an extent substantially comparable with that induce by NGF
same,transaminases levels in serum,[1],elevated transaminases levels
